{
  "source": "patent US20130224110A1",
  "about": "“USE OF ADENOSINE RECEPTOR SIGNALING TO MODULATE PERMEABILITY OF BLOOD-BRAIN BARRIER” (CORNELL UNIVERSITY, priority 2010, published 2013)",
  "test_system": "ICAM-1",
  "assay": "ICAM-1 expression on the choroid plexus after EAE induction",
  "assay_type": "in vivo",
  "conditions": "wild type mice after EAE induction, vs DMSO",
  "procedure": "Anesthetized mice were perfused with PBS, and brains, spleens, and spinal cords were isolated and snap frozen in Tissue Tek-OCT medium. Five μm sections (brains in a sagittal orientation) were affixed to Supefrost/Plus slides (Fisher), fixed in acetone, and stored at −80° C. For immunostaining, slides were thawed and treated with 0.03% H2O2 in PBS to block endogenous peroxidase, blocked with Casein (Vector) in normal goat serum (Zymed), and then incubated with anti-CD45 (YW62.3), anti-CD4 (RM4-5), or anti-ICAM-1 (3E2). Slides were incubated with biotinylated goat anti-rat Ig (Jackson ImmunoResearch) and streptavidin-HRP (Zymed) and developed with an AEC (Red) substrate kit (Zymed) and a hematoxylin counterstain. […]\nAs CD73 catalyzes the breakdown of AMP to adenosine and ARs are expressed in the CNS (Tsutsui et al., “A1 Adenosine Receptor Upregulation and Activation Attenuates Neuroinflammation and Demyelination in a Model of Multiple Sclerosis,” J. Neurosci. 24:1521-1529 (2004)); Rosi et al., The Influence of Brain Inflammation Upon Neuronal Adenosine A2B Receptors,” J. Neurochem. 86:220-227 (2003), which are hereby incorporated by reference in their entirety), it was next determined if AR signaling is important during EAE progression. […] Since CD73 is highly expressed on the choroid plexus (FIG. 6C), it was next determined if ARs are also expressed on the choroid plexus. […]",
  "data": [
    {"smiles": "Nc1nc2c(cnn2CCc2ccccc2)c2nc(-c3ccco3)nn12", "note": "[SCH58261, 2-(2-Furanyl)-7-(2-phenylethyl)-7H-pyrazolo[4,3-e][1,2,4]triazolo[1,5-c]pyrimidin-5-amine]", "values": [
      {"measurement": "ICAM-1 up regulation on the choroid plexus", "result": "prevented the up regulation of ICAM-1"}
    ]}
  ]
}
